Legend:
Type in all cases: in vivo, rat
[1] = tested on: Dahl salt-sensitive (Dahl/SS) male rats; test: Tail-cuff blood pressure measurement in hypertensive Dahl/SS rats; settings: for DBP (diastolic blood pressure) / MAP (mean arterial pressure) / SBP (systolic blood pressure): HT Dahl/SS rats on high salt diet, at 6 weeks, mean ± SEM
Procedure: (§1) A total of 29 adult Dahl salt-sensitive (Dahl/SS) male rats with an initial weight of 150 to 200 g were included in the study. Rats were purchased from Charles River Laboratories (USA) and housed in a room with a 12/12-hour light cycle, a temperature of 21° C., and a humidity of 55%. Rats were maintained on a normal salt diet up to seven weeks of age. Twenty-two Dahl/SS were then randomly switched to a high salt diet for 6 weeks to induce hypertension, whilst 7 rats were kept normotensive (NT) on normal salt diet. Drinking water and food was provided ad libitum.
(§2) After 2 weeks of high salt diet, 15 hypertensive (HT) rats were started on treatment with proANP31-67. Rats treated with proANP31-67 received one of two dosages: 50 ng/kg/day (n=8) or 100 ng/kg/day (n=7). A total of 14 rats received only vehicle: control rats on a normal salt diet (n=7); and HT rats on a high salt diet (n=7). Rats were randomly assigned to the 3 groups (i.e. control normal salt; high salt untreated; high salt plus treatment).
(§3) Drug or vehicle was delivered via Alzet osmotic mini-pumps (Model 2004; mean pumping rate […], mean fill volume […]) implanted subcutaneously (as instructed by the manufacturer) for 28 days. Animals were treated with buprenorphine (0.05 mg/kg s.c.) as analgesic 30 minutes before and up to 1 day following implantation of pumps.
Measurement was carried out using the CODA non-invasive blood pressure acquisition system for rats (Kent Scientific Corporation). Animals were kept in restraint tubes and placed over a heating platform (preheated to 33 to 35° C.) and blood pressure measured by a tail-cuff system. Each recording session consisted of 25 acclimation cycles (not used in the analysis), followed by 20 inflation and deflation cycles (the occlusion cuff is inflated to 250 mm Hg and deflated over 20 s). Rats were trained for at least 5 consecutive days before blood pressure measurements were recorded.
(§4) Experiments were performed as described above in Example 1, using a group of 8 Dahl/SS rats which, at 7 weeks of age, were switched to a high salt diet as described above. After 2 weeks of high salt diet, this group was started on proANP31-67 treatment. The rats were administered proANP31-67 at a renal sub-therapeutic dosage of 25 ng/kg/day.

[2] = tested on: Dahl salt-sensitive (Dahl/SS) male rats; test: Transthoracic echocardiography of cardiac structure and function in hypertensive Dahl/SS rats; settings: for E/A (ratio E wave to A wave) / EF (ejection fraction) / FS (fractional shortening) / IVS; d (inter-ventricular septum, diastole) / IVS; s (inter-ventricular septum, systole) / LA (left atrium diameter) / LV Mass (left ventricular mass) / LV Vol; d (left ventricular volume, diastole) / LV Vol; s (left ventricular volume, systole) / LVPW; d (left ventricular posterior wall, diastole) / LVPW; s (left ventricular posterior wall, systole) / RWT (relative wall thickness): HT Dahl/SS rats on high salt diet, at 6 weeks, mean ± SEM
Procedure: as §1, §2, §3
Cardiac function was assessed by transthoracic echocardiography using a VEVO 2100 high resolution in vivo imaging system from VisualSonics (Canada). Briefly, animals were maintained under anesthesia (1.5-2% isoflurane mixed with oxygen) on a pre-warmed ECG transducer pad with body temperature and ECG monitored. Measurements were made with an MS250 transducer, frequency set at 24 MHz. M-mode in the parasternal long axis view was performed to assess the function and dimension of the left ventricle and left atrium. LVEF was calculated as 100×((LV Vol;d−LV Vol;s)/LV Vol;d). LV mass was estimated by the formula: 1.053×((LVID;d+LVPW;d+IVS;d)3−LVID;d3). Relative wall thickness (RWT) was calculated as 2×LVPW;d/LVID;d.21 Normal geometry of the heart was defined as the 95th percentile for both LV Mass and RWT of the NT group. E and A waves in left ventricular filling velocities were assessed via pulsed-wave Doppler in a parasternal long axis view. Echocardiographic analysis were performed by an operator blinded to treatment group.
as §4

[3] = tested on: Dahl salt-sensitive (Dahl/SS) male rats; test: Histochemistry of left ventricle collagen deposition (Masson's trichrome) and collagen cross-linking (Picrosirius Red); settings: HT Dahl/SS rats, 50 or 100 ng/kg/day s.c. (pooled), not significant, FIG. 2
Procedure: as §1
After 2 weeks of high salt diet, 15 hypertensive (HT) rats were started on treatment with proANP31-67. […]
Hearts were excised, rinsed in PBS, quickly blotted on gauze, and then fixed in 10% formalin for a minimum of 24 hr. […] Stained sections were scanned (20× magnification) with AxioScan Z1 (Carl Zeiss), to obtain whole cross-sections for collagen quantification. Total fibrosis area (%) and perivascular fibrosis (ratio of the area of fibrosis surrounding the vessel wall to the lumen area) were quantified using ZEN2 blue edition (Zeiss, Jena, Germany). […] The degree of cross-linked collagen was calculated as the ratio between cross-linked collagen and total collagen. All histological quantifications were independently performed by three trained researchers blinded to rat groups.

Myh7 = Myh7 gene expression in left ventricle tissue by qPCR; settings: HT Dahl/SS rats
Procedure: as §1
After 2 weeks of high salt diet, 15 hypertensive (HT) rats were started on treatment with proANP31-67. Rats treated with proANP31-67 received one of two dosages: 50 ng/kg/day (n=8) or 100 ng/kg/day (n=7). […]
Total RNA was extracted from left ventricle tissue using an RNeasy Fibrous Tissue Mini Kit (Qiagen, Cat. #74704). RNA concentration and quality was assessed by NanoDrop ND-1000 Spectrophotometer (Thermo Fisher Scientific). cDNA synthesis was performed using an iSCRIPT synthesis kit (Bio-Rad). Transcript levels of Mhy7 (Rn00568328_m1) and Rpl32 (Rn00820748_g1) were determined using TaqMan assays (Applied Biosystems) detected on a QuantStudio3 (Thermo Fisher Scientific) and analysed using QuantStudio™ Design (Thermo Fisher Scientific). Mhy7 mRNA levels were calculated by the ΔΔCt method and normalized to Rpl32 transcript value. […]

[4] = 50 or 100 ng/kg/day s.c. (pooled) for 28 days

Substance: proANP31-67: Human proANP31-67, linear peptide fragment of proANP consisting of SEQ ID NO: 1; also known as vessel dilator, VSDL (EVVPPQVLSEPNEEAGAALSPLPEVPPWTGEVSPAQR; listed as Homo sapiens)
- DBP (diastolic blood pressure) ([1]; 25 ng/kg/day s.c.): 120.1 ± 4.7 mmHg
- MAP (mean arterial pressure) ([1]; 25 ng/kg/day s.c.): 138.6 ± 4.1 mmHg
- SBP (systolic blood pressure) ([1]; 25 ng/kg/day s.c.): 176.5 ± 3.4 mmHg
- DBP (diastolic blood pressure) [1, 4]: 128.2 ± 2.3 mmHg
- MAP (mean arterial pressure) [1, 4]: 144.9 ± 2.3 mmHg
- SBP (systolic blood pressure) [1, 4]: 179.3 ± 2.4 mmHg
- effect on systolic blood pressure ([1]; HT Dahl/SS rats, 25 ng/kg/day s.c., FIG. 5A): no effect
- effect on elevated systolic blood pressure ([1]; HT Dahl/SS rats, 50 or 100 ng/kg/day s.c. (pooled), FIG. 1A): not lowered
- E/A (ratio E wave to A wave) ([2]; 25 ng/kg/day s.c.): 1.47 ± 0.08
- EF (ejection fraction) ([2]; 25 ng/kg/day s.c.): 79.6 ± 1.6%
- FS (fractional shortening) ([2]; 25 ng/kg/day s.c.): 49.89 ± 1.7%
- IVS; d (inter-ventricular septum, diastole) ([2]; 25 ng/kg/day s.c.): 1.67 ± 0.03 mm
- IVS; s (inter-ventricular septum, systole) ([2]; 25 ng/kg/day s.c.): 3.12 ± 0.10 mm
- LA (left atrium diameter) ([2]; 25 ng/kg/day s.c.): 4.13 ± 0.17 mm
- LV Mass (left ventricular mass) ([2]; 25 ng/kg/day s.c.): 872.5 ± 22.5 mg
- LV Vol; d (left ventricular volume, diastole) ([2]; 25 ng/kg/day s.c.): 288.5 ± 15.4 µL
- LV Vol; s (left ventricular volume, systole) ([2]; 25 ng/kg/day s.c.): 59.44 ± 6.2 µL
- LVPW; d (left ventricular posterior wall, diastole) ([2]; 25 ng/kg/day s.c.): 1.67 ± 0.04 mm
- LVPW; s (left ventricular posterior wall, systole) ([2]; 25 ng/kg/day s.c.): 2.81 ± 0.08 mm
- RWT (relative wall thickness) ([2]; 25 ng/kg/day s.c.): 0.46 ± 0.02
- E/A (ratio E wave to A wave) [2, 4]: 1.6 ± 0.1
- EF (ejection fraction) [2, 4]: 78.2 ± 1.9%
- FS (fractional shortening) [2, 4]: 48.7 ± 1.8%
- IVS; d (inter-ventricular septum, diastole) [2, 4]: 1.7 ± 0.0 mm
- IVS; s (inter-ventricular septum, systole) [2, 4]: 3.1 ± 0.0 mm
- LA (left atrium diameter) [2, 4]: 4.2 ± 0.1 mm
- LV Mass (left ventricular mass) [2, 4]: 891.7 ± 12.9 mg
- LV Vol; d (left ventricular volume, diastole) [2, 4]: 265.1 ± 12.4 µL
- LV Vol; s (left ventricular volume, systole) [2, 4]: 58.0 ± 6.3 µL
- LVPW; d (left ventricular posterior wall, diastole) [2, 4]: 1.8 ± 0.0
- LVPW; s (left ventricular posterior wall, systole) [2, 4]: 2.9 ± 0.1
- RWT (relative wall thickness) [2, 4]: 0.52 ± 0.02
- diastolic function as defined by E/A ratio ([2]; HT Dahl/SS rats, 25 ng/kg/day s.c., FIG. 5C): preserved diastolic function
- change in LA diameter ([2]; HT Dahl/SS rats, 25 ng/kg/day s.c., FIG. 5D): much smaller change in LA diameter than the untreated HT group
- proportion of treated HT rats displaying normal cardiac geometry ([2]; HT Dahl/SS rats, 25 ng/kg/day s.c., FIG. 5E): all
- E/A ratio, relative fold change to NT controls ([2]; HT Dahl/SS rats, 50 or 100 ng/kg/day s.c. (pooled), FIG. 1C): preserved
- left atrium diameter larger compared to NT rats ([2]; HT Dahl/SS rats, 50 or 100 ng/kg/day s.c. (pooled), FIG. 1D): about 10%
- proportion of treated HT rats showing normal geometry (LV mass and RWT) ([2]; HT Dahl/SS rats, 50 or 100 ng/kg/day s.c. (pooled), FIG. 1E): approximately 70%
- increase of interstitial LV fibrosis compared to NT rats [3]: 14%
- increase of perivascular LV fibrosis compared to NT rats [3]: 35%
- expression of the Myh7 gene associated with adverse cardiac hypertrophy (Myh7; 25 ng/kg/day s.c., FIG. 5F): attenuated
- expression of the Myh7 gene associated with adverse cardiac hypertrophy (Myh7; 50 or 100 ng/kg/day s.c. (pooled), FIG. 1F): attenuated

Source: US20230173029A1, “TREATMENT OF CARDIAC REMODELLING” (UNIVERSITETET I OSLO, priority 2020, published 2023)
